{
  "source": "patent US9974301B2",
  "about": "“Fungicidal composition for controlling phytopathogenic diseases, comprising a mixture of the volatile compounds ethanol, 3-methylbutanol, isobutyl acetate, isoamyl acetate and alpha-bisabolol; and the use thereof for inhibiting the growth of the pathogenic fungus botrytis cinerea” (UNIVERSIDAD DE LA FRONTERA, priority 2013, dated 2018)",
  "data": [
    {"tested_on": "Botrytis cinerea", "assay": "Inhibition of growth of Botrytis cinerea by artificial VOC mixture and pure compounds, bi compartmentalized Petri dishes (vapour exposure)", "type": "cell-based", "settings": "pure compounds at their relative proportion of 0.70 μl/mL mixture (ethanol 0.11, isobutyl acetate 0.14, isoamyl acetate 0.13, α-bisabolol 0.10 μl/mL head space); after four days", "description": "For this, bi compartmentalized Petri dishes (94×16 mm) (Greiner, Germany) coated with culture medium were used, leaving a head space of 60 mL. One compartment was inoculated with mycelium (3 mm radius disk) of the saprophytic fungus (S. commune). The other compartment was inoculated with fresh mycelium of B. cinerea. In this bioassay there was no physical contact between the two fungi. The control treatment consisted of placing the mycelium of B. cinerea in only one of the compartments. All experimental units (Petri dishes) were covered and sealed with Parafilm M®, and incubated at 25° C. in the dark until the growth of any fungi (treatment and control) reached the edge of the central wall of the Petri dish. The mycelial growth was measured using a magnifying glass (Japan Optical), and data were expressed as percent of inhibition relative to control. Each treatment was repeated 10 times.\nThe inhibitory power of pure compounds and of a mixture based on their percent ratio were assessed. The methodology was similar to that detailed above to assess the antifungal activity of saprophytic fungus. The minimum inhibitory concentration (MIC) and lethal dose 50% (LD50) were calculated by interpolation according to the polynomial equation (Y=−194.565812×2+318.001954×−25.561441; r2=0.982) (See FIG. 2).\n6 formulations were tested at laboratory level: […]\nFormulation 2: 0.11 μl ethanol per 1 mL of head space volume (airspace).\nFormulation 3: 0.14 μl of isobutyl acetate per 1 mL of head space volume (airspace).\nFormulation 4: 0.13 μl of isoamyl acetate per 1 mL of head space volume (airspace).\nFormulation 5: 0.10 μl of α-bisabolol per 1 mL of head space volume (airspace).\nThe effect of each formulation for inhibiting the growth of B. cinerea was tested using bi compartmentalized dishes, according to the above methodology.", "values": [
      {"compound": "CC(=O)OCCC(C)C", "note": "[isoamyl acetate]", "percent of inhibition of Botrytis cinerea growth": "77%"},
      {"compound": "CC(=O)OCC(C)C", "note": "[isobutyl acetate]", "percent of inhibition of Botrytis cinerea growth": "47%"},
      {"compound": "α-bisabolol", "percent of inhibition of Botrytis cinerea growth": "did not inhibit"}
    ]}
  ]
}
